Measurements as given in article PMC10897476, “Pyridylpiperazine efflux pump inhibitor boosts in vivo antibiotic efficacy against K. pneumoniae” (EMBO Molecular Medicine, 2023).

What was measured:
[1] = system: E. coli BW25113; assay: PyrPip boosting of pyridomycin activity in E. coli (resazurin reduction); type: cell-based, Escherichia coli; conditions: E. coli BW25113 in the presence of 8 μg/mL pyridomycin, resazurin reduction; mean ± SEM
From the text: With the aim of developing a PyrPip for in vivo efficacy studies in mice, it was important to optimise the metabolic stability of these efflux pump inhibitors to guarantee sufficient exposure in mice needed for antibiotic boosting. […] To identify metabolically stabilised PyrPips while maintaining AcrB inhibition, it was therefore decided to explore modifications to the quinoline core as well as the introduction of substituents at position 6 of the quinoline ring.

[2] = Microsomal stability in mouse liver microsomes; type: in vitro ADME
Protocol: To determine compound microsomal stability, liver microsomes from female mice (CD-1, Corning) were used. All incubations were performed in duplicate in a shaking water bath at 37 °C. The incubation mixtures contained 1 μM compound with 1% MeOH used as a vehicle, mouse liver microsomes (0.3 mg of microsomal protein per mL), 5 mM MgCl2, 1 mM NADP, 5 mM glucose 6-phosphate, 0.4 U/mL glucose 6-phosphate dehydrogenase, and 50 mM potassium phosphate buffer (pH 7.4) in a final volume of 0.5 mL. Propranolol, known as a high hepatic clearance drug in rodents, was used as a quality-control compound. Controls (t0 and tfinal) were performed in the same conditions but without NADP. The reaction was initiated by the addition of the compound at 1 µM final. Aliquots were removed at 5, 10, 20, 30, and 40 min and the reaction was stopped by adding four volumes of ice-cold MeCN or MeOH containing an internal standard. The samples were centrifuged for 10 min at 12,000 rpm at 4 °C and the supernatants were transferred in matrix tubes for LC-MS/MS analysis. Each compound was quantified by converting the corresponding analyte/internal standard peak area ratios to percentage drug remaining, using the initial ratio values in control incubations as 100%.
Intrinsic clearance (CLint) is expressed as μL/min/mg proteins.

[3] = system: K. pneumoniae AcrB^V448E; assay: MIC of antibiotics with and without EPI (REMA), AcrB V448E mutant; type: cell-based, Klebsiella pneumoniae; conditions: K. pneumoniae-AcrB^V448E, Table 2
Protocol: (§1) MIC experiments were carried out according to the CLSI guidelines (CLSI [2023]). Overnight cultures were diluted to an OD600 = 0.001 in CAMHB followed by addition of efflux pump inhibitors (EPIs) at a final concentration of 100 µM. […] Plates were incubated at 37 °C for up to 20 h. Bacterial viability was evaluated using the resazurin microtitre assay (REMA) and measured by fluorescence using a Tecan Spaert multimode plate reader (Ex: 530 nm Em: 590 nm). MICs were defined as the concentration that prevented 90% of resazurin turnover compared to the non-treated bacteria.
(§2) Mutations in acrB or ramR identified in the BDM88855.HCl (1’) resistant mutant (a.k.a., KPJC11) were introduced individually into K. pneumoniae ATCC 43816 chromosome by allelic exchange (Cianfanelli et al, [2020]). Briefly, 1-kb PCR products centred around each point mutation were generated by amplifying acrB with primers RH1251 ([…][…]) and RH1252 ([…][…]) or ramR with primers RH1249 ([…][…]) and RH1250 ([…][…]) from KPJC11 genomic DNA. PCR fragments were cloned into pFOK (Cianfanelli et al, [2020]) using NEB-building kit ([New England Biolabs]) to generate pEP1533 and pEP1534. Correct plasmids were confirmed by sequencing and introduced into K. pneumoniae ATCC43816 WT via conjugation with the MFDpir+ E. coli donor strain. Exconjugants were selected on kanamycin (50 mg/L) plates at 37 °C and plasmid chromosomal integration was checked by PCR. […] The next day, cultures were diluted and plated onto LB agar. Isolated colonies were then patched onto LB plates with or without kanamycin (50 mg/L) and Km^S candidates were evaluated for correct allelic exchange via acrB or ramR sequencing and then WGS to confirm no additional mutations were introduced.

[4] = system: K. pneumoniae RamR^mut (K124*stop); assay: MIC of antibiotics with and without EPI (REMA), RamR mutant; type: cell-based, Klebsiella pneumoniae; conditions: K. pneumoniae-RamR^mut, Table 2
Protocol: as §1, §2

SMILES: Clc1cc2ccccc2nc1N1CCNCC1 [compound 1]
- PyrPip antibiotic boosting activity EC90 [1]: 3.6 ± 0.5 µM
- Microsomal stability CLint (intrinsic clearance) [2]: 59 μL/min/mg proteins
- Microsomal stability t1/2 [2]: 24 min
- susceptibility of the strain to antibiotic boosting by the EPI, in words [3]: resistant
- EPI mediated antibiotic boosting, in words [4]: maintained
